Experiment: Physicochemical properties of the crystalline complex

With `N#Cc1ccc([C@@H]2O[C@H](CO)[C@@H](O)[C@H](O)[C@H]2O)cc1Cc1ccc(C2CC2)cc1.O=C(O)[C@@H]1CCCN1` [crystalline complex] the “tendency to absorb moisture” value was “does not show a high tendency to absorb moisture” and the “physical and chemical stability” value (various environmental conditions and during production of a medicament) was “high physical and chemical stability”.

— US11896574B2, “Treatment of metabolic disorders in feline animals” (Boehringer Ingelheim Vetmedica GmbH, priority 2013, dated 2024)
